Measurements from patent US20130324522A1, “INSECT ODORANT RECEPTOR ANTAGONISTS” (THE ROCKEFELLER UNIVERSITY, priority 2010, published 2013).
Where two headings read alike, the source gives them in different places.

Columns and labels:
Assay type in all cases: cell-based
[1] = biological target: OR8/OR7 (Anopheles gambiae, UniProt Q7PUT5+Q7QCC7); experiment: Ca2+-imaging of stable HEK293T cell line OR8/OR7; details: for inhibition at 4 µM: HEK-293T, read-out: Percent Inhibition OR8 OR7; for IC50: Table B, read-out: IC50 OR8
Sequence of OR8/OR7 (Q7QCC7 whole entry): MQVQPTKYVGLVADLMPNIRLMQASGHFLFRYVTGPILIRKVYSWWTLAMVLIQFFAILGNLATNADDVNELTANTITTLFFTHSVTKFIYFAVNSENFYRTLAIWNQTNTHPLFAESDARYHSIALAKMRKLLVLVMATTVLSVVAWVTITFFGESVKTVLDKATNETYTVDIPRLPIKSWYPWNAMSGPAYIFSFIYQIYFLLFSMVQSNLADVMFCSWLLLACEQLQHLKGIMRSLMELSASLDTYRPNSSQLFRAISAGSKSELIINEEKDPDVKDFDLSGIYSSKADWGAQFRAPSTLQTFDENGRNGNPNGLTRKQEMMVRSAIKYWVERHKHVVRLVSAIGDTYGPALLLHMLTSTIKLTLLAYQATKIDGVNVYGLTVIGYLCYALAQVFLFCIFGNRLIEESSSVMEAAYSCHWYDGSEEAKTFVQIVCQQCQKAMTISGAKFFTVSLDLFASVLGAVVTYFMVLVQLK
Sequence of OR8/OR7 (Q7PUT5 entry or part of it): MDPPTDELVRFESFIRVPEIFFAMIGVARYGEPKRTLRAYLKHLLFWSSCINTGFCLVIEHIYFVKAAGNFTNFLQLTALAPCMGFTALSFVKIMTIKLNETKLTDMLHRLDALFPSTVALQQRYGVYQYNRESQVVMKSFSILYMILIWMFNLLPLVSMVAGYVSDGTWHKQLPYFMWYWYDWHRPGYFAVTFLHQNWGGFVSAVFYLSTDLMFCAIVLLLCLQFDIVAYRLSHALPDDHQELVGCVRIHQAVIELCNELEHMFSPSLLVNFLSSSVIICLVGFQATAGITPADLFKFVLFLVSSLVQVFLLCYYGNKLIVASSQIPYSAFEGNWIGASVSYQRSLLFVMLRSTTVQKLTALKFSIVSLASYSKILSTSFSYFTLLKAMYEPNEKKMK
Procedure: (§1) Full-length cDNAs for mosquito (Anopheles gambiae) odorant receptor (OR1, OR2, OR7, OR8, OR28), and fly (Drosophila melanogaster) odorant receptor (Or47a, Or83b), mouse TRP channel (TRPM8), and mouse serotonin receptor (5HT3) were obtained and subcloned into mammalian expression vectors. The following mammalian expression vectors were used:
(§2) Stable cell lines OR1/OR7, OR2/OR7, OR8/OR7, OR10/OR7, OR28/OR7 and TRPM8 were generated from HEK293T cells. HEK293T-based cell lines were cultured in DMEM supplemented with these additional antibiotics: 6 μg/mL blasticidin and 1 μg/mL puromycin, with the exception of the TRPM8 cell lines, which was cultured in DMEM supplemented with 1 μg/mL puromycin.
(§3) Cells were trypsinized and split into 35 mm dishes one day before transfection. Confluent cells (60-70%) in 35 mm dishes were transfected with 1 μg of insect OR(X) plasmids in pME18s-bla and 1 μg of OR7-pME18s-puro using lipofectamine 2000. For Anopheles odorant receptors, two plasmids were co-transfected into HEK cells: the ligand-specific receptor (OR1, OR2, OR8, OR28) and the corresponding olfactory co-receptor: OR7. Cell lines containing TRPM8 were transfected with single plasmid.
(§4) Stable cell lines were cultured in 10 cm dishes, and confluent cells (70-80%) were trypsinized. 10,000 cells/20 μL were transferred into each well of 384-well plates coated with poly-D-lysine, and cultured for 2 days. For Flip-In T-Rex cells (cell lines expressing Or47a/Or83b and 5HT3), 5 μL of tetracycline (5 μg/mL) were added 1 day before the assay. 20 μL of Ca-4 dye was loaded into each well for 1.5 hr at room temperature in the dark, and the dye-loaded plates were subjected to Ca^2+-imaging using a Hamamatsu FDSS6000 real time fluorescence plate reader. Odorant solutions (9× final concentration) were prepared by dissolving 1M stock solutions into Hank's Buffered Salt Solution (HBSS), and 30 μL of odor solution was transferred to each well in 384-well plates.
(§5) Compounds ([…] in DMSO) were stored in 384-well plates, and last two columns (32 wells total) contained only DMSO. 200 nL of small compounds were transferred into the odorant plates before the assay using the Perkin-Elmer Janus workstation. The odorant plates were spun down to remove air bubbles, and placed on the FDSS6000 plate loader, and 5 μL of odorant solution was applied to the cell plate on the FDSS6000. Ca^2+ increase was monitored with fluorescence at 525 nm by excitation at 485 nm.

[2] = biological target: OR10/OR7 (Anopheles gambiae, UniProt B5U0U7+Q7QCC7); experiment: Ca2+-imaging of stable HEK293T cell line OR10/OR7; details: for inhibition at 4 µM: HEK-293T, read-out: Percent Inhibition OR10 OR7
Sequence of OR10/OR7 (Q7QCC7 whole entry): as the sequence (Q7QCC7 whole entry) above
Sequence of OR10/OR7 (B5U0U7 entry or part of it): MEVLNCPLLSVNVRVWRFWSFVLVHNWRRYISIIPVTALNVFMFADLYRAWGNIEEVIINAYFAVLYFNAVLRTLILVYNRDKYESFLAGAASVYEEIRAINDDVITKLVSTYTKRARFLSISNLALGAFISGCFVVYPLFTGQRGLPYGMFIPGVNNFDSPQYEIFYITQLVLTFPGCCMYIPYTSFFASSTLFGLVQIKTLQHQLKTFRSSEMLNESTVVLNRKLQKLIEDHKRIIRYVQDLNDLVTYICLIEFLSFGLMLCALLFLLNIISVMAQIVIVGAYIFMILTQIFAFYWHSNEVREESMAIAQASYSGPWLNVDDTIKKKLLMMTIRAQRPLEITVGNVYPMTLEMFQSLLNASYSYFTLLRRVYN
Procedure: as §2
After one day of incubation, the transfected cells were transferred into 10 cm dishes with DMEM containing antibiotics as follows: • 0.5 μg/mL of blasticidin for OR1/OR7, OR2/OR7, OR8/OR7, OR10/OR7, OR28/OR7 • 0.2 μg/mL of puromycin for TRPM8.
as §4, §5

[3] = biological target: T1, mOREG (Mus musculus, UniProt Q920P2); experiment: Ca2+-imaging, control receptor mOREG; details: for IC50: Table B; for inhibition at 4 µM: read-out: Percent Inhibition mOREG
T1 sequence (Q920P2 1-313): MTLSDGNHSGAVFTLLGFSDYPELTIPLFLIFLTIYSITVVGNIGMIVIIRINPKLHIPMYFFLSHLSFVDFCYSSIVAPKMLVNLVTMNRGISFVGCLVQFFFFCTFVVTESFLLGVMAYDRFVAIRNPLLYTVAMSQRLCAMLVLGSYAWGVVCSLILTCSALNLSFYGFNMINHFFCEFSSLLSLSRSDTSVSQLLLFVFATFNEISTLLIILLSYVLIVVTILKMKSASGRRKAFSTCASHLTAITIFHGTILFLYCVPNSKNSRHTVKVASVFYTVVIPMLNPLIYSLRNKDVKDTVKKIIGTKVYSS
Procedure: as §4, with “plates. The last two columns of the plate (32 wells total) were used as control wells as follows: • negative control with HBSS buffer (16 wells) • positive control with ligands (16 wells).” for “plates.”
as §5

[4] = biological target: T2, TRP channel (TRPM8) (Mus musculus, UniProt Q8R4D5); experiment: Ca2+-imaging of stable HEK293T cell line TRPM8; details: for inhibition at 4 µM: HEK-293T, read-out: Percent Inhibition TRPM8
T2 construct: Full-length cDNAs for mosquito (Anopheles gambiae) odorant receptor (OR1, OR2, OR7, OR8, OR28), and fly (Drosophila melanogaster) odorant receptor (Or47a, Or83b), mouse TRP channel (TRPM8); expressed in transfected cells
T2 sequence (Q8R4D5 whole entry): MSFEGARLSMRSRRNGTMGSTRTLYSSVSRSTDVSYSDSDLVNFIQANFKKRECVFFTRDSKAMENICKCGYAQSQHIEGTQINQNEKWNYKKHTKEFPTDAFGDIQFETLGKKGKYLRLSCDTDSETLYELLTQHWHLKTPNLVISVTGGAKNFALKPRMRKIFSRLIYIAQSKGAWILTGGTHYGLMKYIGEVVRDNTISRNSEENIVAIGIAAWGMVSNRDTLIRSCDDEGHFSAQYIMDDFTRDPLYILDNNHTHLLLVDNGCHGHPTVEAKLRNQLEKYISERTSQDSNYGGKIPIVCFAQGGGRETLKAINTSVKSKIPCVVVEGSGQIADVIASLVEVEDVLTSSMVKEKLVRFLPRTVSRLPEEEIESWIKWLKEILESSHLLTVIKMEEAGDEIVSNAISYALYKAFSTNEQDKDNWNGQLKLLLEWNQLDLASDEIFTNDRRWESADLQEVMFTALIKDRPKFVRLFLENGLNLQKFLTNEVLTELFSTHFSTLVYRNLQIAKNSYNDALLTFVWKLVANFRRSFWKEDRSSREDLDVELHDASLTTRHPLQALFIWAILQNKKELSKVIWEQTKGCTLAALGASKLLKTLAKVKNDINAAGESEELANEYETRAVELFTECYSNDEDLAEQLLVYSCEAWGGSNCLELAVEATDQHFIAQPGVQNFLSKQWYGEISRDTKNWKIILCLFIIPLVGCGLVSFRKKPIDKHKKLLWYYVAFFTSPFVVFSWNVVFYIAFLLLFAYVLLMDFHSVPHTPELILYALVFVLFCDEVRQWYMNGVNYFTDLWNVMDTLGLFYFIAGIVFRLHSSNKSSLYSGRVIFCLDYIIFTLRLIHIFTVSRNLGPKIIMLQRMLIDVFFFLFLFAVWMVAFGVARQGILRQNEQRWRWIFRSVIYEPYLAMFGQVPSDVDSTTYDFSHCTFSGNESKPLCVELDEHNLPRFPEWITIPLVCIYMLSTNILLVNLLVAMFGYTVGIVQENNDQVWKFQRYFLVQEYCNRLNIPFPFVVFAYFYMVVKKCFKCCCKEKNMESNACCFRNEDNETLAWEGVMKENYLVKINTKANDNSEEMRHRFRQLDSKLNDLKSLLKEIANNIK
Procedure: as §1, §2, §3, §4, §5

Row | Structure (SMILES) | inhibition at 4 µM ([1]; compound applied at 4 μM) | inhibition at 4 µM ([2]; compound applied at 4 μM) | IC50 ([2]; Table B, read-out: IC50 OR10) | IC50 [3] | inhibition at 4 µM ([3]; compound applied at 4 μM) | inhibition at 4 µM ([4]; compound applied at 4 μM) | IC50 [1] | IC50 ([4]; Table B, read-out: IC50 TRPM8) | inhibition at 4 µM [1] | IC50 [2] | inhibition at 4 µM [2] | inhibition at 4 µM [3] | inhibition at 4 µM [4]
1 | COc1cccc(-c2nnc(SCCCC(=O)N3CCN(C(=O)CC(C)(C)C)C(C)C3)n2-c2ccc(C)cc2)c1 (stereo not shown) [RU-0071818] | < 25% | 51 to 74% | > 1000 nM | > 1000 nM | 51 to 74% | < 25% | – | – | – | – | – | – | –
2 | CCN(C)c1onc(-c2ccccc2)c1CN(CCCOC)C(=O)c1ccco1 [RU-0051926] | < 25% | 26 to 50% | – | – | < 25% | < 25% | – | – | – | – | – | – | –
3 | COCCCN(Cc1c(-c2ccccc2)noc1N1CCC(C)CC1)C(=O)c1ccccc1F [RU-0036876] | 51 to 74% | < 25% | – | – | 26 to 50% | < 25% | > 1000 nM | – | – | – | – | – | –
4 | Cc1ccccc1C(=O)N[C@@H]1CCCCC1NC(=O)C1CCN(C(=O)c2cc(C(F)(F)F)cc(C(F)(F)F)c2)CC1 (stereo partly shown) [RU-0045778] | < 25% | < 25% | – | – | 26 to 50% | < 25% | – | – | – | – | – | – | –
5 | COc1cccc(NC(=O)CCC2CCN(C(=O)CSc3ccccc3)CC2)c1 [RU-0032474] | < 25% | < 25% | – | – | < 25% | < 25% | – | – | – | – | – | – | –
6 | CC(=O)OCC(=O)NCC1Cc2cc(Oc3ccccc3)ccc2O1 (stereo not shown) [RU-0079120] | < 25% | > 75% | < 100 nM | – | < 25% | < 25% | – | – | – | – | – | – | –
7 | COc1ccc(-c2cc(-c3ccccc3)n(C(=O)CN3CCN(Cc4ccccc4)CC3)n2)cc1 [RU-0038795] | < 25% | < 25% | – | – | 26 to 50% | < 25% | – | – | – | – | – | – | –
8 | C=CCN(Cc1nccn1Cc1ccccc1C)C(=O)CC(C)C [RU-0058298] | < 25% | > 75% | < 100 nM | – | 26 to 50% | 26 to 50% | – | – | – | – | – | – | –
9 | COCCN(Cc1c(-c2ccccc2)noc1N(C)C1CCCCC1)C(=O)c1ccccc1OC [RU-0037275] | 51 to 74% | < 25% | – | – | 26 to 50% | < 25% | > 1000 nM | – | – | – | – | – | –
10 | O=C(CCC1CCN(C(=O)c2cccc(-n3cccn3)c2)CC1)Nc1ccccc1 [RU-0032465] | 51 to 74% | < 25% | – | – | 26 to 50% | 26 to 50% | > 1000 nM | – | – | – | – | – | –
11 | Cc1nn(-c2ccc(Cl)cc2)c(C)c1C(=O)NCc1ccccn1 [RU-0048608] | < 25% | 51 to 74% | > 1000 nM | – | < 25% | < 25% | – | – | – | – | – | – | –
12 | CCN(CC)c1onc(-c2ccccc2)c1CN(CC1CCCO1)C(=O)c1ccco1 (stereo not shown) [RU-0036855] | 26 to 50% | < 25% | – | – | 26 to 50% | 26 to 50% | – | – | – | – | – | – | –
13 | Cc1cccc(NC(=O)CCC2CCN(C(=O)CCOc3ccccc3)CC2)c1 [RU-0030324] | 26 to 50% | 26 to 50% | – | > 1000 nM | 51 to 74% | 26 to 50% | – | – | – | – | – | – | –
14 | O=C(c1ccco1)N(Cc1nccn1Cc1ccccc1Cl)CC1CC1 [RU-0047281] | > 75% | > 75% | – | – | 26 to 50% | 51 to 74% | > 1000 nM | > 1000 nM | – | – | – | – | –
15 | O=C(NCCC(=O)N1CCOC(COCc2ccc(F)cc2Cl)C1)OCc1ccccc1 (stereo not shown) [RU-0050344] | 26 to 50% | 26 to 50% | – | – | 26 to 50% | < 25% | – | – | – | – | – | – | –
16 | C=CCOc1cccc(C(=O)N2CCCC(C(=O)c3ccccc3OC)C2)c1 (stereo not shown) [RU-0029409] | 26 to 50% | 26 to 50% | – | – | < 25% | 26 to 50% | – | – | – | – | – | – | –
17 | Cc1ccccc1C(=O)N[C@@H]1CCCCC1NC(=O)C1CCN(C(=O)c2ccc(C(C)(C)C)cc2)CC1 (stereo partly shown) [RU-0045678] | 26 to 50% | > 75% | > 1000 nM | – | 26 to 50% | < 25% | – | – | – | – | – | – | –
18 | CCN(CC)C(=O)Oc1ccc2c(ccn2Cc2ccccc2Cl)c1NC(=O)CCCCC(=O)OC [RU-0075446] | – | – | – | – | – | – | – | – | < 25% | < 100 nM | > 75% | < 25% | < 25%
19 | COc1ccccc1CCC(=O)N1CCC(CCC(=O)Nc2ccccc2)CC1 [RU-0032455] | 26 to 50% | < 25% | – | – | 26 to 50% | < 25% | – | – | – | – | – | – | –
20 | COCCN(Cc1c(-c2ccccc2)noc1N1CCSCC1)CC(O)COCc1ccco1 (stereo not shown) [RU-0037278] | 26 to 50% | 26 to 50% | – | – | 26 to 50% | < 25% | – | – | – | – | – | – | –
21 | CCn1c(C)c(C(=O)CN(CC2CCCO2)C(=O)C2C[C@H]2c2ccccc2)c(C)c1C(=O)OC (stereo partly shown) [RU-0071273] | 26 to 50% | 51 to 74% | < 100 nM | 100 to 1000 nM | 26 to 50% | < 25% | – | – | – | – | – | – | –
22 | Cc1ccccc1C(=O)N[C@@H]1CCCCC1NC(=O)C1CCN(C(=O)C23CC4CC(CC(C4)C2)C3)CC1 (stereo partly shown) [RU-0045351] | < 25% | < 25% | – | – | 26 to 50% | < 25% | – | – | – | – | – | – | –
23 | CN(C)c1ccc(C(=O)N2CCOC(COCc3ccccc3F)C2)cc1 (stereo not shown) [RU-0050325] | 26 to 50% | < 25% | – | – | < 25% | < 25% | – | – | – | – | – | – | –
24 | N#Cc1ccccc1C(=O)N1CCOC(COCc2c(Cl)cccc2Cl)C1 (stereo not shown) [RU-0050405] | 26 to 50% | 26 to 50% | > 1000 nM | – | < 25% | < 25% | – | – | – | – | – | – | –
25 | CCN(CC)C(=O)Oc1ccc2c(ccn2Cc2ccc(Cl)cc2)c1NC(=O)C1CC1 [RU-0075475] | – | – | – | – | – | – | – | – | < 25% | < 100 nM | > 75% | < 25% | < 25%
26 | Cc1ccc(-c2nnc(SCCCC(=O)N3CCN(C(=O)c4cccc(F)c4)C(C)C3)n2-c2ccc(C)cc2)cc1 (stereo not shown) [RU-0071789] | < 25% | > 75% | < 100 nM | – | 26 to 50% | < 25% | – | – | – | – | – | – | –
27 | Cc1c(C(=O)NCc2ccco2)cnn1-c1ccccc1 [RU-0047765] | < 25% | 51 to 74% | < 100 nM | – | < 25% | 26 to 50% | – | – | – | – | – | – | –
